Legend:
[1] = tested on: high-CBD hemp variety Cherry; assay: Low-volume drone foliar applications of MeJA or MDJ on field grown high-CBD hemp, cannabinoid and terpene analysis; type: in vivo, Cannabis spp.; details: about 2 gallons per acre, at harvest; for increase in the ratio of CBD:THC compared to the Control group / alpha bisabolol change compared to the Control group: 7.5 mM; for increase in the ratio of CBD:THC compared to the Control group: morning applications about every 14 days
Excerpt: In previous foliar application experiments, plants were sprayed until the leaves were dripping. In order to assess the plant physiological response to low-volume foliar applications of two jasmonate elicitors, methyl jasmonate (MeJA) and methyl dihydro-jasmonate (MDJ), an outdoor experiment on field grown, high-CBD hemp was designed and performed during the summer of 2019 using an unmanned aerial drone as the application device. A single high-CBD hemp variety, “Cherry” (CBDRx, Longmont, Colo.) was used in an organic field plot in Pueblo, Colo., which was subdivided into four spatially separated quadrants of approximately 0.5 acres each as determined by drone and GPS mapping. Each 0.5-acre quadrant was assigned a treatment group, and the middle area of the entire plot, approximately 1 acre in area, was used as a “control” section of the field. Plants in the Control group received sprays of water and TWEEN®-20 only, identical to the treatment groups except for the exclusion of any jasmonate (i.e., [0 mM] MeJA and MDJ) active ingredients. MeJA and MDJ were applied at approximately 2 gallons per acre. In comparison, previous foliar applications wherein the plant was sprayed until the leaves dripped would equate to between 50-100 gallons per acre.
Treatments were separated into such “morning” and “evening” applications in an attempt to determine if the time of day influenced the plant response to the treatments. The four treatment groups were as follows: TIM=[7.5 mM] MDJ foliar applications in the morning; TIE=[7.5 mM] MDJ foliar applications in the evening; T2M=[7.5 mM] MeJA foliar applications in the morning; T2E [7.5 mM] MeJA foliar applications in the evening. All treatment groups were prepared the day of the application, and all applications were made successively with the same drone device. To reduce potential cross-contamination of the drone sprayer equipment, an acetic acid solution (5%) was run through the applicator equipment between each treatment application and control spray application, followed by plain water as a final rinse.
Plants were planted and allowed to grow in the normal fashion until the onset of flowering, which occurred around Jul. 25, 2019. At that point, foliar applications of the treatment were made approximately every 14 days with adjustments to the schedule as needed to avoid applying treatments on days with high winds, rain, or other suboptimal conditions for drone flight or treatment applications. Approximately every 14 days during the flowering cycle, flower samples from three randomly selected plants in each experimental group were taken, dried, and stored for analytical testing; however, the focus of this study was to determine the effect of the treatment groups versus the control group at harvest. Final flower samples were taken from 10 randomly selected plants in each experimental group on Sep. 12, 2019, labelled accordingly, dried, and sent to a third part commercial cannabis testing lab (Pro Verde, Milford, Mass.) for chemical analysis of the cannabinoids and terpene content individually using liquid chromatography (LC) and headspace gas chromatography (HS-GC), respectively. All samples were harvested on the day of a scheduled treatment prior to treatment.
Statistical analysis of the quantitative terpene data from plant samples taken at harvest was performed using R statistical software and corrected post-hoc using Tukey HSD method. For cannabinoid data from the same plant samples, ANOVA analysis was performed in Microsoft Excel with Tukey HSD post-hoc corrections.

Fusarium ventricosum = assay: MDJ spray on cannabis 'Jack Herer' plants infected with Fusarium ventricosum; type: in vivo
Procedure: To investigate the efficacy of MDJ at inhibiting Fusarium ventricosum, plants of the cannabis variety ‘Jack Herer’ were infected and treated with either 1 mM or 10 mM MDJ. Briefly, after two weeks in vegetative light cycle, ‘Jack Herer’ plants were moved to flowering cycle and sprayed with 1 mM or 10 mM methyl dihydrojasmonate on 4/12/21. After 72 hours (4/15/21) all plants were infected with Fusarium ventricosum cultured on potato dextrose agar. Plants were infected using a fungal pick to inoculate the fungal culture at the stem of the plant. No visual signs of infection were observed after two weeks, so all plants were reinfected using a PDA and liquid culture of F. ventricosum on 4/28/21 and again on 5/14/21. Plants were harvested and hung to dry on 6/11/21 and dry weights recorded on 6/16/21. After harvest, stem tissue was taken from each treatment group and plated onto potato dextrose agar. Fusarium ventricosum was reisolated from each group.

Row | SMILES | increase in the ratio of CBD:THC compared to the Control group [1] [%] | alpha bisabolol change compared to the Control group [1] | alpha-humulene increase compared to the Control group ([1]; Treatment 1, 7.5 mM) [%] | beta-caryophyllene increase compared to the Control group ([1]; Treatment 1, 7.5 mM) [%] | guaiol increase compared to the Control group ([1]; Treatment 1, 7.5 mM) [%] | trans-nerolidol increase compared to the Control group ([1]; Treatment 1, 7.5 mM) [%] | flowers compared to the control (Fusarium ventricosum; 1 mM and 10 mM spray) | leaves compared to the control (Fusarium ventricosum; 1 mM and 10 mM spray) | plant biomass (dry weight) compared to the control group (Fusarium ventricosum; 1 mM and 10 mM spray 72 hours before infection)
1 | CCCCCC1C(=O)CCC1CC(=O)OC (centres unmarked) [MDJ, methyl dihydrojasmonate] | 2.53 | 17.2% | 3.15 | 3.3 | 5.66 | 66.66 | larger flowers | more yellow, wilting leaves | prevention in biomass reduction
2 | CC/C=C\C[C@H]1C(=O)CC[C@@H]1CC(=O)OC [MeJA, Methyl Jasmonate] | 1.76 | decreased |  |  |  |  |  |  | 

Source: patent publication US11638427B2, “Methods and compositions for altering secondary metabolites in plants” (Impello Biosciences, Inc, priority 2020, dated 2023)
